Results published in patent publication EP0015817A1, “Piperidine derivatives, process for their preparation and their use in therapeutical compositions” (METABIO-JOULLIE Société anonyme:, priority 1979, dated 1980).
Where two headings read alike, the source gives them in different places.

Tests used:
[1] = Acute toxicity (LD50) in mice; conditions: mouse, in vivo, souris Swiss NMRI, read-out: DL50 (the source's name)
Protocol: La DL50 a été déterminée chez la souris Swiss NMRI sur le bromhydrate de la benzyloxy-4 pipéridine : - voie orale DL50 75 mg/kg - voie I.V. DL50 32,5 mg/kg

[2] = system: duodénum isolé de rat; assay: Antispasmodic action: antagonism of barium chloride-induced contraction on isolated rat duodenum (Magnus method); conditions: for IC50: read-out: Concentrations molaires inhibitrices 50 %
Protocol: Les essais sont effectués sur le duodénum isolé de rat en survie dans du liquide de Tyrode oxygéné et à température de 37°C (cuve de 20 ml, bain- marie à organes isolés type Valette).
Le tonus et les mouvements de l'organe isolé sont enregistrés par la méthode de Magnus (R.) (Arch. Ges. Physiol. 1904, 102; 123) à l'aide d'une jauge de contrainte reliée à un enregistreur électronique Electromed.
L'antagonisme exercé par le produit étudié est recherché vis-à-vis des effets contracturants musculotropes du chlorure de baryum.
La papavérine est utilisée comme substance antagoniste de référence.
On détermine la concentration molaire du produit qui diminue de 50 % les effets du chlorure de baryum.

c1ccc(COC2CCNCC2)cc1 [Benzyloxy-4 pipéridine (bromhydrate), Bromhydrate de benzyloxy-4 pipéridine]
LD50 ([1]; iv, voie I.V.): 32.5 mg/kg
LD50 ([1]; po, voie orale): 75 mg/kg
IC50 ([2]; concentration reducing by 50 % the effects of chlorure de baryum, isolated rat duodenum in oxygenated Tyrode, 37°C): 18 µM
activité antispasmodique comparée à celle de la papavérine ([2]; qualitative comparison with papavérine, chlorure de baryum contraction, isolated rat duodenum): sensiblement égale à celle de la papavérine

COc1ccc(Cc2nccc3cc(OC)c(OC)cc23)cc1OC [Papavérine, reference compound]
IC50 ([2]; Rattus norvegicus): 12.5 µM
